From patent US7527808B2, “Amorphous cefditoren pivoxil composition and process for producing the same” (Meiji Seika Kaisha, Ltd., priority 2001, dated 2009)

Tests used:
[1] = Test 2: thermal analysis, stability against heat by differential scanning calorimeter; assay type: physicochemical; details: temperature rise rate 10° C./min
Excerpt: The samples shown in Table 2 were examined for stability against heat with a differential scanning calorimeter (model DSC 3100, manufactured by MAC Science).

[2] = Test 4: dissolution test (Japanese Pharmacopoeia Method 2) in second fluid; assay type: physicochemical; details: second fluid of the Japanese Pharmacopoeia; dissolved cefditoren pivoxil determined at 272 nm
Protocol: For each sample shown in Table 2, a dissolution test (see The Japanese Pharmacopoeia, Fourteenth Edition, Part I, General Tests “56. Dissolution test, Method 2”) was carried out in a second fluid specified in the Japanese Pharmacopoeia (a fluid prepared by adding 118 mL of a 0.2 mol/L sodium hydroxide reagent solution and water to 250 mL of a 0.2 mol/L potassium dihydogenphosphate reagent solution; the amount of the water being a sufficient amount to bring the total volume of the fluid to 1,000 mL). The fluid with the sample dissolved therein was sampled at fixed intervals of time and was filtered through a glass filter G-4 manufactured by TOYAMA SANGYO Co., Ltd., and the amount of dissolved cefditoren pivoxil was then quantitatively determined at a measuring wavelength of 272 nm with a spectrophotometer (UV-160, manufactured by Shimadzu Seisakusho Ltd.

CO/N=C(\C(=O)N[C@@H]1C(=O)N2C(C(=O)OCOC(=O)C(C)(C)C)=C(/C=C\c3scnc3C)CS[C@H]12)c1csc(N)n1 [amorphous cefditoren pivoxil, (−)-(6R,7R)-7-[(Z)-2-(2-aminothiazol-4-yl)-2-methoxyiminoacetamido]-3-[(Z)-2-(4-methylthiazol-5-yl)ethenyl]-8-oxo-5-thia-1-azabicyclo[4.2.0]oct-2-ene-2-carboxylic acid 2,2-dimethylpropionyloxymethyl ester]
exothermic peak in DSC curve (transfer to a crystalline state) [1]: around 140 °C

CO/N=C(\C(=O)N[C@@H]1C(=O)N2C(C(=O)OCOC(=O)C(C)(C)C)=C(/C=C\c3scnc3C)CS[C@H]12)c1csc(N)n1 [crystalline cefditoren pivoxil, (−)-(6R,7R)-7-[(Z)-2-(2-aminothiazol-4-yl)-2-methoxyiminoacetamido]-3-[(Z)-2-(4-methylthiazol-5-yl)ethenyl]-8-oxo-5-thia-1-azabicyclo[4.2.0]oct-2-ene-2-carboxylic acid 2,2-dimethylpropionyloxymethyl ester]
dissolvability (dissolution curve of cefditoren pivoxil) [2]: substantially no difference in dissolvability
